This note sets out measurements from the OligoGym collection.

The target of the data set is DGAT2. The conditions noted are these: ASO.

Several values for one entry are separate records, joined by “and”; a condition that tells them apart may be missing. Equal values may be shown once. After the bases stand the sugars from the 5' end (letter, count) and the backbone: PS all phosphorothioate, else s phosphorothioate and o phosphodiester by linkage. Methylation of C is not given here. e = 2'-O-(2-methoxyethyl) (MOE); d = 2'-deoxy (DNA)

Turning to “TAGGATGCTTAACTTCTGCT (sugars e5 d10 e5, PS)”, the target mRNA inhibition (HepG2, 2.5 µM) worked out at 58% and the target mRNA inhibition (HepG2, 10 µM) worked out at 85%.

As for “CTCAGTCACTGACTCACAAC (sugars e5 d10 e5, PS)”, the target mRNA inhibition reads like this: (HepG2, 2.5 µM) 54%; (HepG2, 10 µM) 88%.

The sequence “AACACTCACAGCACTTTACC (sugars e5 d10 e5, PS)” yielded a target mRNA inhibition (HepG2, 0.12 µM) of 4%.

Consider “GTACAAGTTTCTCCACCTAT (sugars e5 d10 e5, PS)”, for which the target mRNA inhibition runs as follows: (HepG2, 2.5 µM) 68% and 88%; (HepG2, 10 µM) 79% and 87%.

With “AGGAGTTTGTGTTTCCCATT (sugars e5 d10 e5, PS)”, the target mRNA inhibition (HepG2, 0.12 µM) amounted to 39%.

As for “CCAAGTAAGCCTCGGTGTCC (sugars e5 d10 e5, PS)”, the target mRNA inhibition (HepG2, 0.12 µM) amounted to 32%.

For the setting “HepG2, 0.12 µM”, “CCAACAGTGGTGATGGGCTT (sugars e5 d10 e5, PS)” registered a target mRNA inhibition of 60%.

Take “GTTCTTCCAACCAGTGTTTG (sugars e5 d10 e5, PS)”: the target mRNA inhibition is, setting by setting: (HepG2, 2.5 µM) 47%; (HepG2, 10 µM) 81%.

On to “GACAGGACCCACTGGAGCAC (sugars e5 d10 e5, PS)”, for which the target mRNA inhibition (HepG2, 0.12 µM) is 44% and 69%.

Under “HepG2, 0.12 µM”, “TAGCATTGCCACTCCCATTC (sugars e2 d13 e5, PS)” had a target mRNA inhibition of 60%.

As for “ACCACTGTTGCTGAGCTCAT (sugars e5 d10 e5, PS)”, the target mRNA inhibition runs as follows: (HepG2, 2.5 µM) 67%; (HepG2, 10 µM) 90%.

“GCTGGTGTTCTACAAGCTGC (sugars e5 d10 e5, PS)”: the target mRNA inhibition is 79% and 81% and 83% (HepG2, 2.5 µM); 90% and 86% and 88% (HepG2, 10 µM).

The sequence “TGCAGAAGGCACCCAGGCCC (sugars e5 d10 e5, PS)” came in with a target mRNA inhibition (HepG2, 0.12 µM) of 46%.

In the case of “GCCACTCCCAGTACAAGGAA (sugars e5 d10 e5, PS)”, the target mRNA inhibition (HepG2, 0.12 µM) was found to be 0%.

Sequence “TCAGAGACTCAGCCGCACCC (sugars e3 d14 e3, PS)” registered a target mRNA inhibition (HepG2, 0.12 µM) of 41%.

The sequence “GCCAGGTAAGGCCGTATGCC (sugars e3 d14 e3, PS)” returned a target mRNA inhibition (HepG2, 0.12 µM) of 61%.

“TGCGCGATTCACTGAGGACC (sugars e5 d10 e5, PS)” came in with a target mRNA inhibition (HepG2, 2.5 µM) of 51% and a target mRNA inhibition (HepG2, 10 µM) of 87%.

Turning to “TTTCCATTTTTTACCCAACC (sugars e5 d10 e5, PS)”, the target mRNA inhibition (HepG2, 2.5 µM) worked out at 54% and the target mRNA inhibition (HepG2, 10 µM) was determined as 90%.

Take “AAGGCCAGGCCCCTTCTGAA (sugars e5 d10 e5, PS)”: for the setting “HepG2, 0.12 µM”, the target mRNA inhibition amounted to 32%.

“GGTGGGAAACTTGGAAACTT (sugars e5 d10 e5, PS)” yielded a target mRNA inhibition (HepG2, 0.12 µM) of 37%.

On to “CCACTGTTGCTGAGCTCATG (sugars e5 d10 e5, PS)”, for which the target mRNA inhibition runs as follows: (HepG2, 2.5 µM) 68%; (HepG2, 10 µM) 88%.

On to “CGCGATTCACTGAGGACCTC (sugars e5 d10 e5, PS)”, for which the target mRNA inhibition runs as follows: (HepG2, 2.5 µM) 73% and 74%; (HepG2, 10 µM) 83% and 93%.

As to “CTAAGCTTATTAGGTGTCTT (sugars e5 d10 e5, PS)”, the target mRNA inhibition reads like this: (HepG2, 2.5 µM) 68%; (HepG2, 10 µM) 81%.

Regarding “CACCAGCTGGATGGGAAAGT (sugars e5 d10 e5, PS)”, for the setting “HepG2, 0.12 µM”, the target mRNA inhibition came to 31%.

Regarding “GAATGCACTGAGTTTCTGCT (sugars e5 d10 e5, PS)”, the target mRNA inhibition (HepG2, 2.5 µM) was 73% and 63%; the target mRNA inhibition (HepG2, 10 µM) was 92% and 87%.

Consider “AAAAACCACTGTTGCTGAGC (sugars e5 d10 e5, PS)”, for which the target mRNA inhibition reads like this: (HepG2, 2.5 µM) 62%; (HepG2, 10 µM) 92%.

Where the note is “HepG2, 0.12 µM”, “GATAGCATTGCCACTCCCAT (sugars e5 d10 e5, PS)” showed a target mRNA inhibition of 66%.

As to “TCTCATGCTAGGTCCTGTGC (sugars e5 d10 e5, PS)”, the target mRNA inhibition was 89% and 74% (HepG2, 2.5 µM); 90% and 88% (HepG2, 10 µM).

As for “ACAGCAGCAGTCTAATCCAT (sugars e5 d10 e5, PS)”, the target mRNA inhibition (HepG2, 2.5 µM) worked out at 57% and the target mRNA inhibition (HepG2, 10 µM) came out at 87%.

For the sequence “AGGAGTTCTCGAATATCCCT (sugars e5 d10 e5, PS)”, the target mRNA inhibition is 55% and 50% (HepG2, 2.5 µM); 87% (HepG2, 10 µM).

“AGCATTGCCACTCCCATTCT (sugars e5 d10 e5, PS)” returned a target mRNA inhibition (HepG2, 0.12 µM) of 74%.

For the sequence “CTCACCCCTGTACTCAGCCC (sugars e5 d10 e5, PS)”, the target mRNA inhibition by setting is: (HepG2, 2.5 µM) 72%; (HepG2, 10 µM) 88%.

Consider “CATCAGGTACTCCCTCAACA (sugars e5 d10 e5, PS)”, for which the target mRNA inhibition (HepG2, 0.12 µM) worked out at 35%.

Consider “TTCACCAGCTGGATGGGAAA (sugars e5 d10 e5, PS)”, for which, under “HepG2, 0.12 µM”, the target mRNA inhibition worked out at 26%.

Turning to “ATAGCATTGCCACTCCCATT (sugars e2 d13 e5, PS)”, the target mRNA inhibition (HepG2, 0.12 µM) was 57%.

The sequence “TATTTGAAGATAAAGTCAGA (sugars e5 d10 e5, PS)” had a target mRNA inhibition (HepG2, 0.12 µM) of 0%.

In turn, “TTCACCTCCAGGACCTCAGT (sugars e5 d10 e5, PS)” yielded a target mRNA inhibition (HepG2, 0.12 µM) of 46%.

With “GGAGCAGGCCTCGGGAAGCA (sugars e5 d10 e5, PS)”, the target mRNA inhibition is 38% (HepG2, 2.5 µM) and 85% (HepG2, 10 µM).

On to “GTAAGCCTCGGTGTCCT (sugars e3 d10 e4, PS)”, for which the target mRNA inhibition is, setting by setting: (HepG2, 2.5 µM) 62%; (HepG2, 10 µM) 79%.
